According to patent publication US6576624B1, “Use of dopamine receptor antagonists in palliative tumor therapy” (Zentaris AG, priority 1996, dated 2003):
Read-outs that look alike come from different tables or passages of the source. Marks after values point to notes of the source that are not given here.

Key:
[1] = for Changes of body weight, Control AUC, day 7 / Changes of body weight, D-18506(4 × 68.1 mg/kg p.o.) AUC, day 7 / Changes of body weight, D-21266(4 × 46.4 mg/kg p.o.) AUC, day 7: AUC to day 7; for Changes of body weight, Control AUC, day 7 / Changes of body weight, Control AUC, day 11: asterisks = comparison with control group; for Changes of body weight, D-18506(4 × 68.1 mg/kg p.o.) AUC, day 7 / Changes of body weight, D-18506(4 × 68.1 mg/kg p.o.) AUC, day 11: compared with D-18506 alone (D-18506 4 × 68.1 mg/kg p.o. alone); for Changes of body weight, D-18506(4 × 68.1 mg/kg p.o.) AUC, day 7 / Changes of body weight, D-18506(4 × 68.1 mg/kg p.o.) AUC, day 11 / Changes of body weight, D-21266(4 × 46.4 mg/kg p.o.) AUC, day 7 / Changes of body weight, D-21266(4 × 46.4 mg/kg p.o.) AUC, day 11: same i.p. doses as c1; for Changes of body weight, Control AUC, day 11 / Changes of body weight, D-18506(4 × 68.1 mg/kg p.o.) AUC, day 11 / Changes of body weight, D-21266(4 × 46.4 mg/kg p.o.) AUC, day 11: AUC to day 11; for Changes of body weight, D-21266(4 × 46.4 mg/kg p.o.) AUC, day 7 / Changes of body weight, D-21266(4 × 46.4 mg/kg p.o.) AUC, day 11: compared with D-21266 alone (D-21266 4 × 46.4 mg/kg p.o. alone); for Effect on body weight development of animals treated with octadecyl(1,1-dimethylpiperidinio-4-yl)phosphate: simultaneous administration with D-21266, normal rats, FIGS. 7 and 8, Table 2
Text: Comparative studies with respect to body weight changes in healthy and tumor-bearing rats were investigated after administration of miltefosine or octadecyl(1,1-dimethylpiperidinio-4-yl)phosphate alone and in combination with various appetite-stimulating compounds.

[2] = test system: DMBA-induced breast tumor; experiment: Anti-tumor action on DMBA-induced breast tumor of rats; assay type: in vivo, rat; conditions: rats with DMBA-induced breast tumor; FIGS. 11-12
[3] = cancer patients; Eur. J. Cancer 29A, 208-209, 1993; cited from earlier work
[4] = Table 1, rat, i.p. mg/kg: Domperidone 0.1, Pimozide 0.2, Metoclopramide 0.2, Cyproheptadine 2.5, combinations with D-18506 4 × 68.1 mg/kg p.o.
[5] = Table 2, rat, i.p. mg/kg: Pimozide 0.1, Cyproheptadine 2.5, Metoclopramide 0.2, Domperidone 0.1, combinations with D-21266 4 × 46.4 mg/kg p.o.

SMILES: O=c1[nH]c2ccccc2n1C1CCN(CCCC(c2ccc(F)cc2)c2ccc(F)cc2)CC1 [Pimozide, pimozide]
- Changes of body weight, Control AUC, day 7 [1, 4]: 30.4**
- Changes of body weight, D-18506(4 × 68.1 mg/kg p.o.) AUC, day 7 ([1]; Table 1, rat): 30.4**
- Changes of body weight, Control AUC, day 11 [1, 4]: 69.8**
- Changes of body weight, D-18506(4 × 68.1 mg/kg p.o.) AUC, day 11 ([1]; Table 1, rat): 69.8**
- Changes of body weight, Control AUC, day 7 [1, 5]: 31.2**
- Changes of body weight, D-21266(4 × 46.4 mg/kg p.o.) AUC, day 7 ([1]; Table 2, rat): 31.2**
- Changes of body weight, Control AUC, day 11 [1, 5]: 67.5**
- Changes of body weight, D-21266(4 × 46.4 mg/kg p.o.) AUC, day 11 ([1]; Table 2, rat): 67.5**

SMILES: CCN(CC)CCNC(=O)c1cc(Cl)c(N)cc1OC [Metoclopramide, metoclopramide]
- Changes of body weight, Control AUC, day 7 [1, 4]: 11.5
- Changes of body weight, D-18506(4 × 68.1 mg/kg p.o.) AUC, day 7 ([1]; Table 1, rat): 11.5**
- Changes of body weight, Control AUC, day 11 [1, 4]: 30.5
- Changes of body weight, D-18506(4 × 68.1 mg/kg p.o.) AUC, day 11 ([1]; Table 1, rat): 30.5**
- Changes of body weight, Control AUC, day 7 [1, 5]: 19.2
- Changes of body weight, D-21266(4 × 46.4 mg/kg p.o.) AUC, day 7 ([1]; Table 2, rat): 19.2
- Changes of body weight, Control AUC, day 11 [1, 5]: 49.4
- Changes of body weight, D-21266(4 × 46.4 mg/kg p.o.) AUC, day 11 ([1]; Table 2, rat): 49.4
- Effect on body weight development of animals treated with octadecyl(1,1-dimethylpiperidinio-4-yl)phosphate [1]: no significant effect
- Effect on the loss of weight caused by miltefosine ([1]; simultaneous administration with miltefosine, healthy and tumor-bearing rats, domperidone or pimozide 5×0.1 mg/kg i.p.): does not lead to any positive effect

SMILES: O=c1[nH]c2ccccc2n1CCCN1CCC(n2c(=O)[nH]c3cc(Cl)ccc32)CC1 [Domperidone, domperidone]
- Effect on anti-tumor action of octadecyl(1,1-dimethylpiperidinio-4-yl)phosphate [2]: without affecting the anti-tumor action
- Effect on body weight development of animals treated with octadecyl(1,1-dimethylpiperidinio-4-yl)phosphate [1]: more than compensated
- Body weight development, alone and in combination with octadecyl(1,1-dimethylpiperidinio-4-yl)phosphate ([1]; tumor-bearing rats, FIGS. 9-10): increase the body weight development

SMILES: CCCCCCCCCCCCCCCCCCOP(=O)([O-])OC1CC[N+](C)(C)CC1 [D-21266, octadecyl(1,1-dimethylpiperidinio-4-yl)phosphate]
- Changes of body weight, D-21266(4 × 46.4 mg/kg p.o.) AUC, day 7 ([1]; Table 2, rat): 10.6
- Changes of body weight, D-21266(4 × 46.4 mg/kg p.o.) AUC, day 11 ([1]; Table 2, rat): 37.1
- Body weight development after octadecyl(1,1-dimethylpiperidinio-4-yl)phosphate alone ([1]; rat, in vivo): increase in weight less than the control animals

SMILES: CCCCCCCCCCCCCCCCOP(=O)([O-])OCC[N+](C)(C)C [D-18506, miltefosine]
- Changes of body weight, D-18506(4 × 68.1 mg/kg p.o.) AUC, day 7 ([1]; Table 1, rat): −17.9
- Changes of body weight, D-18506(4 × 68.1 mg/kg p.o.) AUC, day 11 ([1]; Table 1, rat): −23.5
- Body weight change on administration of miltefosine alone ([1]; rat, in vivo): clear loss of weight
- Side effects in patients treated with miltefosine [3]: marked loss of body weight

SMILES: CN1CCC(=C2c3ccccc3C=Cc3ccccc32)CC1 [Cyproheptadine, cyproheptadine]
- Changes of body weight, Control AUC, day 7 [1, 4]: 0.8
- Changes of body weight, D-18506(4 × 68.1 mg/kg p.o.) AUC, day 7 ([1]; Table 1, rat): 0.8
- Changes of body weight, Control AUC, day 11 [1, 4]: 15.5
- Changes of body weight, D-18506(4 × 68.1 mg/kg p.o.) AUC, day 11 ([1]; Table 1, rat): 15.5
- Changes of body weight, Control AUC, day 7 [1, 5]: 1.5
- Changes of body weight, D-21266(4 × 46.4 mg/kg p.o.) AUC, day 7 ([1]; Table 2, rat): 1.5
- Changes of body weight, Control AUC, day 11 [1, 5]: 20.6
- Changes of body weight, D-21266(4 × 46.4 mg/kg p.o.) AUC, day 11 ([1]; Table 2, rat): 20.6
- Effect on body weight development of animals treated with octadecyl(1,1-dimethylpiperidinio-4-yl)phosphate [1]: no significant effect
